The values below come from patent US9499553B2 (CHUGAI SEIYAKU KABUSHIKI KAISHA, priority 2013, dated 2016).

The test deals with T1, human NaPi-IIb (Homo sapiens, UniProt O95436).
T1 construct: expressed in transfected cells
T1 sequence (O95436 1-690): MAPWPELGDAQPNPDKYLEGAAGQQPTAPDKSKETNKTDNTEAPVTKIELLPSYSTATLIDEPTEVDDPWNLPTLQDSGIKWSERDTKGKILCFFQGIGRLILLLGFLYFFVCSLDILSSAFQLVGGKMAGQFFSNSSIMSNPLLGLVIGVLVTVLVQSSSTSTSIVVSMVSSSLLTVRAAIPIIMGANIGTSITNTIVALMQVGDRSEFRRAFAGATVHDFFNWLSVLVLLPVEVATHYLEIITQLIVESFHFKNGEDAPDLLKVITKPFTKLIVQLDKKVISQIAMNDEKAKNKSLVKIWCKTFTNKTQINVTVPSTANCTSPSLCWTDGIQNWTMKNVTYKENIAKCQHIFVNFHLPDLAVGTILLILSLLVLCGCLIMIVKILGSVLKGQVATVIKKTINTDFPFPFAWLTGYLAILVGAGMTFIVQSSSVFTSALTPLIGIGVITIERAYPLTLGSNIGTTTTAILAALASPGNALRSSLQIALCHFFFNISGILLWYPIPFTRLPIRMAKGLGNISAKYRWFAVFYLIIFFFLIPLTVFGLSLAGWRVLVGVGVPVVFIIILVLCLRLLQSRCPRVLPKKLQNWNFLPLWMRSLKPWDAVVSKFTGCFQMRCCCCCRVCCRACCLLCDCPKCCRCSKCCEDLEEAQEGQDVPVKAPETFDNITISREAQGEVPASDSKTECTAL
The test can be described thus: Inhibitory effect on 33PO4 uptake into human NaPi-IIb-expressing CHO cells. Format: cell-based. The protocol:
Test Example 2: Inhibitory Effect on PO4 Uptake into Human NaPi-IIb-Expressing Cell CHO cells were transfected with human NaPi-IIb expression plasmids, and a stably human NaPi-IIb-expressing cell line was obtained using G418. The human NaPi-IIb-expressing cells were inoculated to a 96-well plate and incubated overnight in a CO2 incubator. […] After a given time, a 1/20 volume of buffer A containing ^33PO4 was added thereto and reacted at room temperature. After washing with ice-cold buffer A, a liquid scintillator was added to each reaction mixture, and the amount of ^33PO4 uptake was measured using TopCount.

Setting [1] is: read-out: IC50 against 33PO4 uptake into human NaPi-IIb-expressing cells.

Molecules are shown by their SMILES. Like-named read-outs stand apart in the source and are kept apart here.

For `CN1CCC(Oc2ccc(CN3C(=O)C(C(=O)Nc4ccc(C(F)(F)F)cc4-c4cc(C(F)(F)F)ncn4)=C(O)C4(CCC4)N3C)c(F)c2F)CC1` [Example 411], the IC50 under setting [1] worked out at 12.8 µM.

With `CN1[C@@H](C(C)(C)C)C(O)=C(C(=O)Nc2cnc(C(F)(F)F)nc2-c2ccc(C(F)(F)F)nc2)C(=O)N1Cc1ccc(OCCN2CCOCC2)c(F)c1F` [Example 273], the IC50 (read-out: IC50) is 13.2 µM.

Regarding `CN1N(Cc2cccc(F)c2F)C(=O)C(C(=O)Nc2ccc(Cl)cc2-c2cc(C(F)(F)F)ncn2)=C(O)C12CCC2` [Example 255], the half-maximal inhibitory concentration (IC50) (read-out: IC50) came to 9.8 µM.

On to `C[C@]12CCCN1N(Cc1ccccc1)C(=O)C(C(=O)Nc1ccc(C(F)(F)F)cc1-c1cc(C(F)(F)F)ncn1)=C2O` [Example 188], for which the concentration for half-maximal inhibition (IC50) (read-out: IC50) was determined as 6.1 µM.

Turning to `Cc1cccc(CN2C(=O)C(C(=O)Nc3cc(F)c(Br)c(F)c3)=C(O)[C@@]3(C)CCCN23)c1F` [Example 195], the concentration for half-maximal inhibition (IC50) (read-out: IC50) was 4.6 µM.

With `CN1N(Cc2ccc(OCCN3CCOCC3)c(F)c2F)C(=O)C(C(=O)Nc2ccc(C(F)(F)F)cc2-c2ncnc(C(F)(F)F)c2Cl)=C(O)C12CCC2` [Example 284], the IC50 (read-out: IC50) was found to be 7.8 µM.

In the case of `CN1N(Cc2ccc(OCCCCCCC(=O)O)c(F)c2F)C(=O)C(C(=O)Nc2ccc(C(F)(F)F)cc2-c2cc(C(F)(F)F)ncn2)=C(O)C12CCCC2` [Example 335], the IC50 (read-out: IC50) was 8.7 µM.

Consider `CN1N(Cc2ccc(OCCCOCCO)c(F)c2F)C(=O)C(C(=O)Nc2ccc(C(F)(F)F)cc2-c2cc(C(F)(F)F)ncn2)=C(O)C12CCCC2` [Example 395], for which the concentration for half-maximal inhibition (IC50) under setting [1] is 15.2 µM.

As to `CN(C[C@H](O)[C@@H](O)[C@H](O)[C@H](O)CO)C(=O)CCOCCOCCOCCOc1ccc(CN2C(=O)C(C(=O)Nc3ccc(C(F)(F)F)cc3-c3cc(C(F)(F)F)ncn3)=C(O)C3(CCCC3)N2C)c(F)c1F` [Example 423], the concentration for half-maximal inhibition (IC50) under setting [1] was determined as 20 µM.

Consider `CN1N(Cc2ccc(OCCN3CCOCC3)c(F)c2F)C(=O)C(C(=O)Nc2ccc(C(F)(F)F)cc2-c2cc(C(F)(F)F)ncn2)=C(O)C12CCCCC2` [Example 295], for which the half-maximal inhibitory concentration (IC50) (read-out: IC50) is 17 µM.

Consider `CCC1(CC)C(O)=C(C(=O)Nc2ccc(Cl)cc2-c2ccc(C(F)(F)F)nc2)C(=O)N(Cc2ccc(OCCN3CCOCC3)c(F)c2F)N1C` [Example 294], for which the IC50 (read-out: IC50) was found to be 13.4 µM.

Turning to `C[C@]12CCCN1N(Cc1c(F)cc(C#CCCCCOC[C@H](O)CO)cc1F)C(=O)C(C(=O)Nc1ccc(C(F)(F)F)cc1-c1ccc(C(F)(F)F)nc1)=C2O` [Example 143], under “read-out: IC50”, the half-maximal inhibitory concentration (IC50) was found to be 6.7 µM.

Take `COc1cccc(-c2cc(C(F)(F)F)ccc2NC(=O)C2=C(O)[C@@]3(C)CCCN3N(Cc3ccc(C#CCOCCCO)c(F)c3F)C2=O)c1OC` [Example 127]: the IC50 (read-out: IC50) is 17.6 µM.

`CCN(CCN(C)CCOC)c1ccc(CN2C(=O)C(C(=O)Nc3ccc(C(F)(F)F)cc3-c3cc(C(F)(F)F)ncn3)=C(O)C3(CCCC3)N2C)c(F)c1F` [Example 443]: the IC50 under setting [1] turned out to be 8.9 µM.

Turning to `COC1(C)CN(CCOc2ccc(CN3C(=O)C(C(=O)Nc4ccc(C(F)(F)F)cc4-c4cc(C(F)(F)F)ncn4)=C(O)C4(CCC4)N3C)c(F)c2F)C1` [Example 356], the IC50 under setting [1] came out at 21.9 µM.

As to `C[C@]12CCCN1N(Cc1cccc(F)c1F)C(=O)C(C(=O)Nc1ccc(C(F)(F)F)cc1-c1cnc(Br)cn1)=C2O` [Example 73], the 50% inhibitory concentration (IC50) (read-out: IC50) was 2.3 µM.

Turning to `CN1N(Cc2ccc(OCCCCCOCCCO)c(F)c2F)C(=O)C(C(=O)Nc2ccc(C(F)(F)F)cc2-c2cc(C(F)(F)F)ncn2)=C(O)C12CCCC2` [Example 400], the IC50 under setting [1] was 9.2 µM.

On to `CN1N(Cc2ccc(OCCCCCC(=O)O)c(F)c2F)C(=O)C(C(=O)Nc2ccc(C(F)(F)F)cc2-c2cc(C(F)(F)F)ncn2)=C(O)C12CCCC2` [Example 334], for which the IC50 (read-out: IC50) was determined as 10.3 µM.

As to `C[C@]12CCCN1N(Cc1cccc(F)c1Cl)C(=O)C(C(=O)Nc1cc(F)c(Br)c(F)c1)=C2O` [Example 174], the IC50 (read-out: IC50) turned out to be 2.2 µM.

In the case of `C[C@]12CCCN1N(Cc1cccc(F)c1F)C(=O)C(C(=O)Nc1ccc(C(F)(F)F)cc1-c1ncnc(Cl)c1Cl)=C2O` [Example 70], the concentration for half-maximal inhibition (IC50) (read-out: IC50) is 8.4 µM.

Take `CN(CCO)CCOc1ccc(CN2C(=O)C(C(=O)Nc3ccc(C(F)(F)F)cc3-c3cc(C(F)(F)F)ncn3)=C(O)C3(CCC3)N2C)c(F)c1F` [Example 347]: for the setting “read-out: IC50”, the 50% inhibitory concentration (IC50) amounted to 25.2 µM.

Take `C[C@]12CCCN1N(Cc1ccc(CCCCCCC(=O)O)c(F)c1F)C(=O)C(C(=O)Nc1ccc(Cl)cc1-c1ccc(C(F)(F)F)nc1)=C2O` [Example 116, 7-[4-[[(4aR)-3-[[4-Chloro-2-[6-(trifluoromethyl)pyridin-3-yl]phenyl]carbamoyl]-4-hydroxy-4a-methyl-2-oxo-6,7-dihydro-5H-pyrrolo[1,2-b]pyridazin-1-yl]methyl]-2,3-difluorophenyl]heptanoate]: the IC50 (read-out: IC50) was 8.1 µM.

`CN1N(Cc2ccc(OCCN3[C@@H]4COC[C@H]3C4)c(F)c2F)C(=O)C(C(=O)Nc2ccc(C(F)(F)F)cc2-c2cc(C(F)(F)F)ncn2)=C(O)C12CCCC2` [Example 380]: under setting [1], the IC50 was found to be 20.2 µM.

Take `COCCN(C)CCN(c1ccc(CN2C(=O)C(C(=O)Nc3ccc(C(F)(F)F)cc3-c3cc(C(F)(F)F)ncn3)=C(O)C3(CCCC3)N2C)c(F)c1F)C(C)C` [Example 445]: the IC50 under setting [1] is 9.2 µM.

In the case of `COc1ncc(-c2cc(C(F)(F)F)ccc2NC(=O)C2=C(O)[C@@]3(C)CCCN3N(Cc3cccc(F)c3F)C2=O)c(OC)n1` [Example 72], the IC50 (read-out: IC50) was 8.3 µM.

With `COc1cccc(-c2cc(C(F)(F)F)ccc2NC(=O)C2=C(O)[C@@]3(C)CCCN3N(Cc3ccc(OC[C@H]4CCCO4)c(F)c3F)C2=O)c1OC` [Example 159], under “read-out: IC50”, the IC50 worked out at 11.4 µM.

Take `Cc1cccc(CN2C(=O)C(C(=O)Nc3ccc(C(F)(F)F)cc3-c3cc(C(F)(F)F)ncn3)=C(O)[C@@]3(C)CCCN23)c1F` [Example 215]: the IC50 (read-out: IC50) was determined as 6.2 µM.

With `CCC1(CC)C(O)=C(C(=O)Nc2ccc(C(F)(F)F)cc2-c2ccc(C(F)(F)F)nc2)C(=O)N(Cc2ccc(OCCN3CCOCC3)c(F)c2F)N1C` [Example 293], under “read-out: IC50”, the IC50 was determined as 10.7 µM.

Consider `Cc1nc(NC(=O)C2=C(O)[C@H](C(C)(C)C)N(C)N(Cc3cccc(F)c3F)C2=O)ccc1Br` [Example 241], for which the IC50 (read-out: IC50) was determined as 16.5 µM.

As to `CC(C)[C@H]1C(O)=C(C(=O)Nc2ccc(C(F)(F)F)cc2-c2cc(C(F)(F)F)ncn2)C(=O)N(Cc2cccc(F)c2F)N1C` [Example 252], for the setting “read-out: IC50”, the concentration for half-maximal inhibition (IC50) is 9.5 µM.

As to `C[C@]12CCCN1N(Cc1cc(F)cc(F)c1)C(=O)C(C(=O)Nc1ccc(C(F)(F)F)cc1-c1cc(C(F)(F)F)ncn1)=C2O` [Example 213], under “read-out: IC50”, the concentration for half-maximal inhibition (IC50) is 6.4 µM.

Consider `CN1N(Cc2ccc(OCCN3[C@@H]4COC[C@H]3C4)c(F)c2F)C(=O)C(C(=O)Nc2ccc(C(F)(F)F)cc2-c2cc(C(F)(F)F)ncn2)=C(O)C12CCC2` [Example 339], for which the IC50 (read-out: IC50) came out at 19.1 µM.

As for `CC(C)[C@H]1C(O)=C(C(=O)Nc2ccc(C(F)(F)F)cc2-c2ccc(C(F)(F)F)nc2)C(=O)N(Cc2ccc(OCCN3CCOCC3)c(F)c2F)N1C` [Example 280], the IC50 (read-out: IC50) was 11.9 µM.

In the case of `COc1cc(CN2C(=O)C(C(=O)Nc3ccc(C(F)(F)F)cc3-c3ccc(C(F)(F)F)nc3)=C(O)[C@@]3(C)CCCN23)cc(OC)c1` [Example 202], the half-inhibitory concentration (IC50) (read-out: IC50) was found to be 6.1 µM.

As for `CSc1ncc(-c2cc(C(F)(F)F)ccc2NC(=O)C2=C(O)[C@@]3(C)CCCN3N(Cc3ccc(C#CCCCCC(=O)O)c(F)c3F)C2=O)cn1` [Example 118, 7-[4-[[(4aR)-4-Hydroxy-4a-methyl-3-[[2-(2-methylsulfanylpyrimidin-5-yl)-4-(trifluoromethyl)phenyl]carbamoyl]-2-oxo-6,7-dihydro-5H-pyrrolo[1,2-b]pyridazin-1-yl]methyl]-2,3-difluorophenyl]hept-6-ynoate], the concentration for half-maximal inhibition (IC50) (read-out: IC50) turned out to be 9.1 µM.

In the case of `COCCN(CCOC)CCOc1ccc(CN2C(=O)C(C(=O)Nc3ccc(C(F)(F)F)cc3-c3cc(C(F)(F)F)ncn3)=C(O)C3(CCC3)N2C)c(F)c1F` [Example 348], under setting [1], the 50% inhibitory concentration (IC50) was 26.1 µM.

In the case of `C[C@]12CCCN1N(Cc1ccccc1F)C(=O)C(C(=O)Nc1ccc(C(F)(F)F)cc1-c1cc(C(F)(F)F)ncn1)=C2O` [Example 207], the 50% inhibitory concentration (IC50) (read-out: IC50) turned out to be 6.5 µM.

In the case of `CN1N(Cc2ccc(OCCCCOCCO)c(F)c2F)C(=O)C(C(=O)Nc2ccc(C(F)(F)F)cc2-c2cc(C(F)(F)F)ncn2)=C(O)C12CCCC2` [Example 396], under setting [1], the half-maximal inhibitory concentration (IC50) was 9.5 µM.

With `C[C@]12CCCN1N(Cc1cc(F)ccc1F)C(=O)C(C(=O)Nc1ccc(C(F)(F)F)cc1-c1ccc(C(F)(F)F)nc1)=C2O` [Example 172], the IC50 (read-out: IC50) amounted to 2.4 µM.

On to `C[C@]12CCCN1N(Cc1cc(F)c(F)c(F)c1)C(=O)C(C(=O)Nc1cc(F)c(Br)c(F)c1)=C2O` [Example 197], for which the 50% inhibitory concentration (IC50) (read-out: IC50) was 7 µM.

Take `CN1N(Cc2ccc(OCCN3CCN(CCO)CC3)c(F)c2F)C(=O)C(C(=O)Nc2ccc(C(F)(F)F)cc2-c2cc(C(F)(F)F)ncn2)=C(O)C12CCCC2` [Example 376]: the IC50 under setting [1] was 21.4 µM.
